According to patent publication US11185520B2, “Composition comprising at least one water-soluble pharmaceutically acceptable salt of elafibranor having improved intestinal absorption” (NASHPHARM, priority 2016, dated 2021):
Converted amounts (≈) assume the structure as drawn. “And” between values parts separate entries of the source, which are not always exact repeats. Identical values can stand only once.

Experiments:
[1] = Thermodynamic solubility of elafibranor in aqueous medium; format: physicochemical
Method: The thermodynamic solubility of the basic elafibranor is studied over a period of 24 hours and 72 hours in various aqueous buffers in the presence or not of surfactants. Batch number EM0274L2 is used for this work. After 24 hours and 72 hours of incubation at ambient temperature (22°−24° C.), the solutions are sampled and then filtered over 0.2 μm polycarbonate filters in flasks for LCMS analyses, and diluting once in DMSO before stirring for 2 minutes (vortex or sonification).

[2] = Solubility test on various elafibranor salts; format: physicochemical; conditions: for Solubility in aqueous medium / Solubility: listed as Elafibranor (GFT505) Amorphous free basic
[3] = all clinical trials; cited from earlier work
[4] = test system: non-alcoholic steatohepatitis NASH; conditions: cited from earlier work
[5] = Buffer pH 4.6, ambient temperature (22-24° C.)
[6] = Buffer pH 7.4, ambient temperature (22-24° C.)
[7] = Buffer pH 8.5, ambient temperature (22-24° C.)
[8] = Polyethylene glycol 400, ambient temperature (22-24° C.)
[9] = Propylene glycol, ambient temperature (22-24° C.)

## CSc1ccc(C(=O)/C=C/c2cc(C)c(OC(C)(C)C(=O)O)c(C)c2)cc1 [elafibranor, 2-[2,6 dimethyl-4-[3-[4-(methylthio)phenyl]-3-oxo-1(E)-propenyl]phenoxyl]-2-methylpropanoic acid]
[1]; [5]
  Solubility after 24 hours: 44 µg/mL (≈ 0.114 mM)
  Solubility after 72 hours: 110 μM and 0.042 mg/ml
[1]; [6]
  Solubility after 24 hours: 194 µg/mL (≈ 0.505 mM)
  Solubility after 72 hours: 0.234 mg/mL (≈ 0.609 mM)
[1]; [7]
  Solubility after 24 hours: 1701 µg/mL (≈ 4.42 mM)
  Solubility after 72 hours: 1.644 mg/mL (≈ 4.28 mM)
[1]; [8]
  Solubility after 24 hours: 15023 µg/mL (≈ 39.1 mM)
  Solubility after 72 hours: 15.774 mg/mL (≈ 41 mM)
[1]; [9]
  Solubility after 24 hours: 12905 µg/mL (≈ 33.6 mM)
  Solubility after 72 hours: 13.506 mg/mL (≈ 35.1 mM)
[1]; in words
  Solubility in an aqueous medium: low
[1]; propylene glycol or PEG 400
  Effect of addition of cosolvent on solubility: significantly improves the solubility
[2]; Buffer pH 4.6, ambient temperature
  Solubility in aqueous medium: 44 µg/mL
[2]; Buffer pH 7.4, ambient temperature
  Solubility in aqueous medium: 194 µg/mL
[2]; Buffer pH 8.5, ambient temperature
  Solubility in aqueous medium: 1701 µg/mL
[2]; Polyethylene glycol 400, ambient temperature
  Solubility: 15023 µg/mL
[2]; Propylene glycol, ambient temperature
  Solubility: 12905 µg/mL
[2]; aqueous medium, ambient temperature, descriptive term
  Solubility (according to Ph. Eur.): Very low solubility
[3]
  Tolerance profile: very good tolerance profile
[4]
  Biochemical markers of hepatic malfunctioning (ALAT, ASAT, γGT, ALP): improvement
